Literature values in US10232018B2, “ACTH for treatment of acute respiratory distress syndrome” (MALLINCKRODT ARD IP LIMITED, priority 2013, dated 2019).

Tests used:
[1] = Baumann and Felber, 1976

Substance	partial agonist activity in adrenal stimulation assays in comparison to ACTH1-24 as control (adrenal stimulation)	duration of action compared with 1-24 [1]
ACTH1-23: ACTH fragment 1-23, partial agonist in Hofmann et al. (1970) (SYSMEHFRWGKPVGKKRRPVKVY; Corticotropin; UniProt P01189 138-160, looked up, fragment)	91%	–
human 1-39: human ACTH 1-39 (SYSMEHFRWGKPVGKKRRPVKVYPNGAEDESAEAFPLEF; Corticotropin; UniProt P01189 138-176, looked up)	–	longer duration of action
